Drawing on the SangsterLogP compilation, this text covers logD and logP for 31 compounds.

In general, logD refers to lipophilicity at a set pH, counting ionised and neutral species. Low values mean lower lipophilicity, high ones higher lipophilicity. Broadly, the logP is a log measure of how a compound divides between an organic and an aqueous phase. Low values mean a more hydrophilic compound, high ones a more lipophilic compound.

Square brackets hold non-standard residues; d marks the D form. Peptide text beside a SMILES is read from it. NMeF = CN[CH](Cc1ccccc1)C(=O)O

A short description of data set [1]: method code SF, from DOI: 10.1021/jm00079a001, PMID: 1732531. Particulars: pH 7.4.
A short description of data set [2]: method code SF-HPLC, from DOI: 10.1016/0378-5173(91)90200-8. Particulars: pH 7.4.
Data set [3] can be described thus: method code SF, from Moerlein, M.; Dischino, D.; Raymond, N.; Weitl, L.; Welch, J. (1982). Factors affecting the cerebral uptake of gallium complexes. J Labelled Comp Radiopharm, 19(11-12)1421-1422. The following applies: pH 7.0.
Data set [4] is described as follows: method code SF-AS, from Zhang, L.; Fu, G.; Wan, Y. (2014). Determination of verbascoside and its oil-water partition coefficient by ultraviolet spectrophotometry. Shipin Anquan ZhiliangJjiance Xuebao, 5(2)528-532.
Data set [5] in a line: method code SF, from DOI: 10.1021/jm00262a020, PMID: 4716184.
A short description of data set [6]: method code SF-FL, from DOI: 10.1021/acs.jmedchem.5b00420, PMID: 26263187.
Data set [7] can be described thus: method code SF-AS, from DOI: 10.1016/j.ejmech.2009.02.028, PMID: 19321234.
Data set [8] is described as follows: method code SF-AS, from DOI: 10.1111/j.1476-5381.1987.tb08980.x, PMID: 3036289. Particulars: pH 7.4.
Data set [9] is described as follows: method code SF-HPLC, from DOI: 10.1016/j.ijpharm.2013.10.039, PMID: 24184034. The following applies: pH 7.0.
The nature of data set [10]: method code SF-HPLC, from DOI: 10.1248/cpb.38.1906, PMID: 2268893. The following applies: pH 6.9.
A short description of data set [11]: method code SF-RC, from DOI: 10.1023/a:1015867608405, PMID: 1614980. The following applies: pH 7.4.
A short description of data set [12]: method code SF-AS, from DOI: 10.1021/jm00371a014, PMID: 6716401. Particulars: pH 7.4.
The nature of data set [13]: method code SF, from DOI: 10.1021/jm00169a014, PMID: 2362268. Particulars: pH 7.4.
Data set [14] is described as follows: method code SF-HPLC, from DOI: 10.1023/a:1016059008464, PMID: 8899834.
For data set [15] the following is noted: pH 6.5.
Assay in data set [16]: not given
This is another data set of the same source.

The nature of data set [17]: method code SF-AS, from DOI: 10.1016/s0960-894x(99)00527-2, PMID: 10571171. Particulars: pH 7.0.
Assay in data set [18]: not given
The source holds these as a separate data set.

Data set [19] is described as follows: method code SF, from DOI: 10.1021/jm00088a007, PMID: 1588555. The following applies: pH 7.4.
A short description of data set [20]: method code SF-AS, from DOI: 10.1016/s0026-895x(25)13330-0, PMID: 3162758. Particulars: pH 4.5.
The nature of data set [21]: method code SF-HPLC, from DOI: 10.1021/js9504200, PMID: 8742941. Particulars: pH 7.4.
Assay in data set [22]: not given
This is another data set of the same source.

Assay in data set [23]: not given
This is another data set of the same source.

Data set [24] in a line: method code SF-AS, from DOI: 10.1016/j.ejmech.2010.02.047, PMID: 20227799. Particulars: pH 7.4.
The conditions of data set [25]: pH 6.5. This is another data set of the same source.
Assay in data set [26]: not given
This is another data set of the same source.

Assay in data set [27]: not given
The source holds these as a separate data set.

A short description of data set [28]: method code SF-RC, from DOI: 10.1021/jm00392a008, PMID: 3625705.
Data set [29] is described as follows: method code SF-HPLC, from DOI: 10.1002/jccs.199500138.
Assay in data set [30]: not given
This is another data set of the same source.

In data set [1], `C=CC[C@H](NC(=O)[C@@H](Cc1ccccc1)NS(=O)(=O)N1CCN(C)CC1)C(=O)NC(CC1CCCCC1)C(=O)C(F)(F)C(=O)NCCN1CCOCC1` (stereo partly specified) showed a pH-dependent lipophilicity (logD) of 2.73.

Turning to `CCOc1ccc(N2CCN(CC(O)CC(Cc3ccccc3)C(=O)NC3c4ccccc4CC3O)C(C(=O)NC(C)(C)C)C2)cn1` (stereo unspecified), the logP came to 3.62.

`CCC(C(=O)OCc1ccc(COC(=O)C(CC)C(COC(=O)C2CC2)Cc2cncn2C)cc1)C(COC(=O)C1CC1)Cc1cncn1C` (stereo unspecified) yielded a logD in data set [2] of 4.2.

As for `CCCCCCN(CCCCN(CCCN(CCCCCC)C(=O)c1cccc(O)c1O)C(=O)c1cccc(O)c1O)C(=O)c1cccc(O)c1O`, in data set [3], the logD is -1.52.

In the case of `C[C@@H]1O[C@@H](OC2[C@@H](O)C(OCCc3ccc(O)c(O)c3)OC(CO)[C@H]2OC(=O)/C=C/c2ccc(O)c(O)c2)[C@H](O)C(O)C1O` (stereo partly specified), the logP in data set [4] is -0.57. In [5], `CC[C@@H](C(=O)[C@@H](C)[C@@H](O)[C@H](C)CCc1ccc(C)c(O)c1C(=O)O)[C@H]1O[C@](CC)([C@H]2CC[C@](O)(CC)[C@H](C)O2)C[C@@H]1C` yielded a lipophilicity (logP) of 2.85.

With `COc1cccc2c1C(=O)c1c(O)c3c(c(O)c1C2=O)CC(O)(C(=O)CO)CC3OC1CC(NC(=O)C2CCC(CN3C(=O)CC(SCCN)C3=O)CC2)C(O)C(C)O1` (stereo unspecified), in [6], the logP is -0.02.

On to `CCCCCCCCCCCCCC(=O)NC(C(=O)Nc1ccn(C2OC(CO)C(O)C2O)c(=O)n1)c1ccc(O)cc1` (stereo unspecified), for which the logP in data set [7] is 0.9. Consider `C[C@@H]1O[C@@H](O[C@H]2C[C@@H](O)[C@]3(CO)[C@H]4[C@H](O)C[C@]5(C)[C@@H]([C@@H]6COC(=O)C6)CC[C@]5(O)[C@@H]4CC[C@]3(O)C2)[C@H](O)[C@H](O)[C@H]1O`, for which the logD in data set [8] was -0.7. `CC(=O)O[C@@H]1C(=O)[C@]23C[C@H]2C[C@H]2OC[C@@]2(OC(C)=O)[C@H]3[C@H](OC(=O)c2ccccc2)[C@]2(O)C[C@H](OC(=O)[C@H](O)[C@@H](NC(=O)OC(C)(C)C)c3ccccc3)C(C)=C1C2(C)C` displayed a logD in [9] of 2.06.

In data set [10], `CCOC(=O)OCCC(SC(=O)OCC)=C(C)N(C=O)CC1=C(C(=O)OCOC(=O)C(C)(C)C)N2C(=O)C(NC(=O)C(=NOC)c3csc(N)n3)C2SC1` (stereo unspecified) registered a logD of 3.34.

`CC(=O)NC(Cc1ccccc1)C(=O)N(C)C(Cc1ccccc1)C(=O)N(C)C(Cc1ccccc1)C(N)=O` (stereo unspecified) (Ac-Phe-[NMeF]-[NMeF]-NH2; configuration not given here): in data set [11], the logD was found to be 2.53.

With `COc1cccc2c1C(=O)c1c(O)c3c(c(O)c1C2=O)CC(O)(C(C)=O)CC3OC1CC(N2CCOCC2C#N)C(O)C(C)O1` (stereo unspecified), the logD in data set [12] was found to be 2.59.

In [13], `C=C1[C@@H](C)[C@H]2[C@H](Cc3ccccc3)NC(=O)[C@]23OC(=O)/C=C\[C@H](O)CCC[C@@H](C)C/C=C/[C@H]3[C@@H]1O` displayed a logD of 3.37. Turning to `CC(C)CCC[C@@H](C)[C@H]1CC[C@H]2[C@@H]3CC[C@H]4C[C@@H](CCC=C(c5cc(Cl)c(O)c(C(=O)O)c5)c5cc(Cl)c(O)c(C(=O)O)c5)CC[C@]4(C)[C@H]3CC[C@]12C`, the logP in data set [14] came out at 6.94.

On to `CCN1CC(C(O)C(CC2CCCCC2)NC(=O)C(Cc2cc[nH]n2)NC(=O)C(CC(=O)N2CCOCC2)Cc2ccccc2)OC1=O` (stereo unspecified), for which the logD in data set [15] came to 2.52.

Take `COc1cc(C)c(S(=O)(=O)NC(CC(=O)NC2OC(CO)C(O)C(O)C2NC(C)=O)C(=O)NC(Cc2ccc(C(=N)N)cc2)C(=O)N2CCCCC2)c(C)c1C` (stereo unspecified): the lipophilicity (logP) in data set [16] is -1.5. For `O=C(NCCCC(CO)(CCCNC(=O)c1ccc2cccnc2c1O)CCCNC(=O)c1ccc2cccnc2c1O)c1ccc2cccnc2c1O`, the log distribution coefficient (logD) in [17] came out at 1.2. Turning to `CCCN(CCC)C(=O)Cc1c(-c2ccc(OC(=O)NCCc3ccc(O)c(O)c3)cc2)nc2c(Cl)cc(Cl)cn12`, in data set [18], the logP was 4.79.

For the compound `CCCC[C@H](O[C@@H](Cc1ccccc1)C(=O)N1CCC(OCOC)CC1)C(=O)NC(CC1CCCCC1)C(O)CC(C(=O)NCCCN1CCOCC1)C(C)C` (stereo partly specified), the log distribution coefficient (logD) in data set [19] was 4.3. `COc1cc([C@@H]2c3cc4c(cc3[C@@H](O[C@@H]3O[C@@H]5CO[C@@H](c6cccs6)O[C@H]5[C@H](O)[C@H]3O)[C@H]3COC(=O)[C@H]23)OCO4)cc(OC)c1O`: the pH-dependent lipophilicity (logD) in data set [20] amounted to 1.8. Consider `O=C(OCCCCCC1CCSS1)c1cc(=O)c2c(OCC(O)COc3cccc4oc(C(=O)OCCCCCC5CCSS5)cc(=O)c34)cccc2o1` (stereo unspecified), for which the logD in [21] is 2.87. In data set [22], `CC(C)Cc1ccc(C(Nc2cccc(C(=O)c3cn(CCCC(=O)O)c4ccccc34)c2)c2ccc(CC(C)C)cc2)cc1` displayed a logP of 3. Compound `Cc1ccccc1NC(=O)Nc1ccc(CC(=O)N[C@@H](CCCCNC(=O)/C=C/c2cccnc2)C(=O)N[C@@H](CCCC(=O)O)C(=O)NC2(C(N)=O)CCCCC2)cc1` came in with a logP in data set [23] of 3.26.

As to `COc1ccc(-c2oc3cc(C(C)=O)cc(OC)c3c(=O)c2-c2ccc(-c3ccccc3)cc2)cc1OC`, the pH-dependent lipophilicity (logD) in data set [24] is 3.95. Take `CCCCC(OC(Cc1ccccc1)C(=O)N1CCC(OCOC)CC1)C(=O)NC(CC1CCCCC1)C(O)CC(C(=O)NCc1nn[nH]n1)C(C)C` (stereo unspecified): the logD in data set [25] was 2.9.

As for `COC1C(OC(C)=O)CC(=O)OC(C)CC=CC=CC(O)C(C)CC(CC=O)C1OC1OC(C)C(OC2C[C@@](C)(O)C(OC(=O)CC(C)C)C(C)O2)C(N(C)C)C1O` (stereo partly specified), in [26], the logP turned out to be 2.39. `Nc1cccc(CN2C(=O)N(c3cccc(C(=O)Nc4cnccn4)c3)C(Cc3ccccc3)C(O)C(O)C2Cc2ccccc2)c1` (stereo unspecified): in data set [27], the lipophilicity (logP) was 3.77. Consider `CC/C=C\C/C=C\C/C=C\CCCCCCCC(=O)OCC(COC(=O)CCCN)OC(=O)CCCN` (stereo unspecified), for which the log partition coefficient (logP) in [28] was 0.33. In turn, `CC(=O)O[C@@H]1CC[C@]2(C)C3=CC[C@]4(C)[C@@H]([C@H](C)CC/C=C(\C)C(=O)O)C[C@@H](OC(C)=O)[C@@]4(C)C3=CC[C@H]2C1(C)C` showed a logP in [29] of 2.74. In turn, `Cc1c(O)cccc1C(=O)N[C@@H](CSc1ccccc1)[C@H](O)CN1C[C@H]2CCCC[C@H]2C[C@H]1C(=O)NC(C)(C)C` displayed a logP in data set [30] of 4.
